Bounds are passed on as bounds.

In the first test the target is T1, TrkA kinase (Homo sapiens, UniProt P04629).
T1 construct: purchased Upstate, USA
T1 sequence (P04629 33-796): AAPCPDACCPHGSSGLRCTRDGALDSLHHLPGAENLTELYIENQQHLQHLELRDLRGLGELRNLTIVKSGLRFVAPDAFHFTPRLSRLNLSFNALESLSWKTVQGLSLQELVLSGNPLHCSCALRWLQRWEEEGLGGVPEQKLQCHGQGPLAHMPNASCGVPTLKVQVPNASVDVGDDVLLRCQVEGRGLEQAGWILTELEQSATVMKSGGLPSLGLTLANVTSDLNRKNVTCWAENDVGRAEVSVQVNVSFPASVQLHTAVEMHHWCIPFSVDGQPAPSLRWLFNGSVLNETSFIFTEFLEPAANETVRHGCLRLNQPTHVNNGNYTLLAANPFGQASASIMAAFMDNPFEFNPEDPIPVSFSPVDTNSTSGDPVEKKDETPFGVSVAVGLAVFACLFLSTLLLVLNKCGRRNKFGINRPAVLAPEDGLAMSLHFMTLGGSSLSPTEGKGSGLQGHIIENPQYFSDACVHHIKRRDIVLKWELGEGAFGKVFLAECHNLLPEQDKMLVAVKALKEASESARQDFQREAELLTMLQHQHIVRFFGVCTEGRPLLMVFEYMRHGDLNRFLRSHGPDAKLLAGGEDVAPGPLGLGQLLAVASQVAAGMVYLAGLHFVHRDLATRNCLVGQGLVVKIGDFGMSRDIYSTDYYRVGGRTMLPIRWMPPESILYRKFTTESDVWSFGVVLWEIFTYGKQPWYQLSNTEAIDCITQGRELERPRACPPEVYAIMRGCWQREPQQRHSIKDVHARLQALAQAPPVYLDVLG
Description: In vitro TrkA inhibitory activity using TR-FRET assay. Format: biochemical. As to conditions: 5 ng TrkA, 500 μM ATP, both bounds given in nm, read-out: TrkA inhibitory activity in-vitro IC50. On the procedure: Determination of In Vitro TrkA Inhibitory Activity Using TR-FRET Assay
Compounds were screened in the TR-FRET assay with TrkA kinase. 5 ng of TrkA [Upstate, USA] kinase was used for assay. The compound was incubated with the kinase for 30 minutes at 20-35° C. After the incubation, substrate mix [40 nM Ultra light poly GT (Perkin Elmer, USA) and 500 μM ATP] was added. The above reaction was stopped by the addition of 40 mM EDTA after 30 minutes. The Eu-labelled antiphospho-tyrosine antibody [Perkin Elmer, USA] was added at 0.5 nM and the fluorescence emission at 615 nm/665 nm [excitation at 340 nm] was measured. The compounds were initially screened at 100 nM, 1 μM and 10 μM concentrations. The potent compounds with >25% inhibition at 1 μM of TrkA were taken for the full dose response studies. The final DMSO concentration in the assay was […]. For IC50 determination, ⅓^rd serial dilution was made from the 20 mM DMSO stock solution. 2 μl of these were transferred to the test wells containing 20 μl reaction mixture [Total reaction volume 22 μl]. The fluorescence was measured in Perkin Elmer Wallac 1420 Multilabel Counter Victor 3. The IC50 was determined by fitting the dose response data to a sigmoidal curve fitting equation using GraphPad Prism software version 5.
Regarding `CC(C)(C)S(=O)(=O)NC(=O)c1cnn2ccc(N3CC(F)(F)CC3c3cc(F)ccc3F)cc12` (single isomer, unassigned) [Example 56], the IC50 was in the range of 0.1 to 0.5 µM.

`O=C(NS(=O)(=O)C1CCCCC1)c1cnn2ccc(N3CCC[C@@H]3c3cc(F)ccc3F)cc12` [Example 12, (R)-N-(cyclohexylsulfonyl)-5-(2-(2,5-difluorophenyl)pyrrolidin-1-yl)pyrazolo[1,5-a] pyridine-3-carboxamide]: the IC50 was 0.1 to 0.5 µM.

As for `CS(=O)(=O)NC(=O)c1cnn2ccc(N3CCC[C@@H]3c3cc(F)ccc3F)cc12` [Example 6, (R)-5-(2-(2,5-difluorophenyl)pyrrolidin-1-yl)-N-(methylsulfonyl)pyrazolo[1,5-a]pyridine-3-carboxamide], the IC50 was in the range of 0.1 to 0.5 µM.

With `CN(C)c1ccc(S(=O)(=O)NC(=O)c2cnn3ccc(N4CCC[C@@H]4c4cc(F)ccc4F)cc23)cn1` [Example 23, (R)-5-(2-(2,5-difluorophenyl)pyrrolidin-1-yl)-N-((6-(dimethylamino)pyridin-3-yl)sulfonyl)pyrazolo[1,5-a] pyridine-3-carboxamide], the IC50 was 0.1 to 0.5 µM.

`CC(C)(C)S(=O)(=O)NC(=O)c1cnn2ccc(N3CCC[C@@H]3c3cc(F)ccc3-c3ccc(F)cc3)cc12` [Example 54, (R)-N-(tert-butylsulfonyl)-5-(2-(4,4′-difluoro-[1,1′-biphenyl]-2-yl)pyrrolidin-l-yl)pyrazolo[1,5-a]pyridine-3-carboxamide]: the IC50 was 0.1 to 0.5 µM.

`Cc1nc(C)c(S(=O)(=O)NC(=O)c2cnn3ccc(N4CCC[C@@H]4c4cc(F)ccc4F)cc23)s1` [Example 20, (R)-5-(2-(2,5-difluorophenyl)pyrrolidin-1-yl)-N-((2,4-dimethylthiazol-5-yl)sulfonyl) pyrazolo[1,5-a]pyridine-3-carboxamide]: the concentration for half-maximal inhibition (IC50) is 0.1 to 0.5 µM.

On to `O=C(NS(=O)(=O)c1ccc(-n2cncn2)nc1)c1cnn2ccc(N3CCC[C@@H]3c3cc(F)cc(F)c3)cc12` [Example 72, (R)-N-((6-(1H-1,2,4-triazol-1-yl)pyridin-3-yl)sulfonyl)-5-(2-(3,5-difluorophenyl)pyrrolidin-1-yl)pyrazolo[1,5-a]pyridine-3-carboxamide], for which the IC50 fell in the range of 0.1 to 0.5 µM.

Turning to `CCC1(S(=O)(=O)NC(=O)c2cnn3ccc(N4CCC[C@@H]4c4cc(F)ccc4F)cc23)CC1` [Example 36, (R)-5-(2-(2,5-difluorophenyl)pyrrolidin-1-yl)-N-((1-ethylcyclopropyl)sulfonyl) pyrazolo[1,5-a]pyridine-3-carboxamide], the IC50 fell in the range of 0.1 to 0.5 µM.

Consider `O=C(NS(=O)(=O)C1CCC1)c1cnn2ccc(N3CCC[C@@H]3c3cc(F)ccc3F)cc12` [Example 33, (R)-N-(cyclobutylsulfonyl)-5-(2-(2,5-difluorophenyl)pyrrolidin-1-yl)pyrazolo[1,5-a]pyridine-3-carboxamide], for which the half-inhibitory concentration (IC50) is 0.1 to 0.5 µM.

The test is the same for the next values; noted with them: 5 ng TrkA, 500 μM ATP, lower bound in nm [sic], upper bound in μM, read-out: TrkA inhibitory activity in-vitro IC50.
Take `CC(C)(C)S(=O)(=O)NC(=O)c1cnn2ccc(N3C[C@H](F)C[C@@H]3c3cc(F)ccc3F)cc12` [Example 58, N-(tert-butylsulfonyl)-5-((2R,4R)-2-(2,5-difluorophenyl)-4-fluoropyrrolidin-1-yl) pyrazolo[1,5-a]pyridine-3-carboxamide]: the IC50 is 0.5 to 1 µM.

For `Cc1nc(S(=O)(=O)NC(=O)c2cnn3ccc(N4CCC[C@@H]4c4cc(F)ccc4F)cc23)cn1C` [Example 15, (R)-5-(2-(2,5-difluorophenyl)pyrrolidin-1-yl)-N-((1,2-dimethyl-1H-imidazol-4-yl)sulfonyl)pyrazolo[1,5-a] pyridine-3-carboxamide], the IC50 fell in the range of 0.5 to 1 µM.

The same test, now with this note: 5 ng TrkA, 500 μM ATP, read-out: TrkA inhibition in-vitro IC50.
With `O=C(NS(=O)(=O)N1CCOCC1)c1cnn2ccc(N3CCC[C@@H]3c3cc(F)ccc3F)cc12` [Example 84, (R)-5-(2-(2,5-difluorophenyl)pyrrolidin-1-yl)-N-(morpholinosulfonyl) pyrazolo[1,5-a]pyridine-3-carboxamide], the IC50 was at most 0.05 µM.

Take `CC1(S(=O)(=O)NC(=O)c2cnn3ccc(N4CCC[C@@H]4c4cc(F)ccc4F)cc23)CC1` [Example 134, Sodium (R)-(5-(2-(2,5-difluorophenyl)pyrrolidin-1-yl)pyrazolo[1,5-a]pyridine-3-carbonyl)((1-methylcyclopropyl)sulfonyl)amide]: the IC50 lay within 0.05 to 0.1 µM.

`O=C(NS(=O)(=O)c1ccc(N2CC[C@H](O)C2)cc1)c1cnn2ccc(N3CCC[C@@H]3c3cc(F)ccc3F)cc12` [Example 8, 5-((R)-2-(2,5-difluorophenyl)pyrrolidin-1-yl)-N-((4-((S)-3-hydroxypyrrolidin-1-yl)phenyl)sulfonyl)pyrazolo[1,5-a] pyridine-3-carboxamide]: the half-maximal inhibitory concentration (IC50) was at most 0.05 µM.

Turning to `CCN(C)S(=O)(=O)NC(=O)c1cnn2ccc(N3CCC[C@@H]3c3cc(F)cc(F)c3OCCF)cc12` [Example 94, (R)-5-(2-(3,5-difluoro-2-(2-fluoroethoxy)phenyl)pyrrolidin-1-yl)-N-(N-ethyl-N-methylsulfamoyl)pyrazolo[1,5-a]pyridine-3-carboxamide], the IC50 is at most 0.05 µM.

Regarding `CCN(CC)S(=O)(=O)NC(=O)c1cnn2ccc(N3CCC[C@@H]3c3cc(F)ccc3OCCF)cc12` [Example 88, (R)-N-(N,N-diethylsulfamoyl)-5-(2-(5-fluoro-2-(2-fluoroethoxy)phenyl)pyrrolidin-1-yl)pyrazolo[1,5-a]pyridine-3-carboxamide], the IC50 was at most 0.05 µM.

On to `O=C(NS(=O)(=O)c1ccc(N2CC[C@H](O)C2)nc1)c1cnn2ccc(N3CCC[C@@H]3c3cc(F)cc(F)c3)cc12` [Example 73, 5-((R)-2-(3,5-difluorophenyl)pyrrolidin-1-yl)-N-((6-((S)-3-hydroxypyrrolidin-1-yl)pyridin-3-yl)sulfonyl)pyrazolo[1,5-a] pyridine-3-carboxamide], for which the IC50 was at most 0.05 µM.

As for `CC(C)(C)S(=O)(=O)NC(=O)c1cnn2ccc(N3C[C@@H](F)C[C@@H]3c3cccc(F)c3)c(F)c12` [Example 137, Sodium (tert-butylsulfonyl)(4-fluoro-5-((2R,4S)-4-fluoro-2-(3-fluorophenyl)pyrrolidin-1-yl)pyrazolo[1,5-a]pyridine-3-carbonyl)amide], the IC50 was at most 0.05 µM.

As to `CN(C(=O)c1cnn2ccc(N3CCC[C@@H]3c3cc(F)ccc3F)cc12)S(=O)(=O)c1cccc(C#N)c1` [Example 9, (R)-N-((3-cyanophenyl)sulfonyl)-5-(2-(2,5-difluorophenyl)pyrrolidin-1-yl)-N-methylpyrazolo[1,5-a] pyridine-3-carboxamide], the IC50 is at most 0.05 µM.

Consider `CC(C)(C)S(=O)(=O)NC(=O)c1cnn2ccc(N3CCC[C@@H]3c3cncc(F)c3)cc12` [Example 44, (R)-N-(tert-butylsulfonyl)-5-(2-(5-fluoropyridin-3-yl)pyrrolidin-1-yl)pyrazolo[1,5-a] pyridine-3-carboxamide], for which the IC50 was in the range of 0.05 to 0.1 µM.

Regarding `CC(C)(C)S(=O)(=O)NC(=O)c1cnn2ccc(N3CCC[C@@H]3c3cc(F)ccc3OC(F)F)cc12` [Example 63, (R)-N-(tert-butylsulfonyl)-5-(2-(2-(difluoromethoxy)-5-fluorophenyl)pyrrolidin-1-yl) pyrazolo[1,5-a]pyridine-3-carboxamide], the IC50 is 0.05 to 0.1 µM.

With `CC(C)(C)S(=O)(=O)NC(=O)c1cnn2ccc(N3CCC[C@@H]3c3cc(F)ccc3OC3CCOC3)cc12` (stereo partly drawn) [Example 60, N-(tert-butylsulfonyl)-5-((2R)-2-(5-fluoro-2-((tetrahydrofuran-3-yl)oxy)phenyl)pyrrolidin-1-yl)pyrazolo[1,5-a]pyridine-3-carboxamide], the IC50 was in the range of 0.05 to 0.1 µM.

As for `O=C(NS(=O)(=O)c1ccc(Cl)s1)c1cnn2ccc(N3CCC[C@@H]3c3cc(F)ccc3F)cc12` [Example 31, (R)-N-((5-chlorothiophen-2-yl)sulfonyl)-5-(2-(2,5-difluorophenyl)pyrrolidin-1-yl)pyrazolo [1,5-a]pyridine-3-carboxamide], the IC50 was at most 0.05 µM.

As for `O=C(NS(=O)(=O)c1ccc(N2CC[C@H](O)C2)cc1)c1cnn2ccc(N3CCC[C@@H]3c3cc(F)cc(F)c3)cc12` [Example 70, 5-((R)-2-(3,5-difluorophenyl)pyrrolidin-1-yl)-N-((4-((S)-3-hydroxypyrrolidin-1-yl)phenyl)sulfonyl)pyrazolo[1,5-a] pyridine-3-carboxamide], the IC50 was at most 0.05 µM.

The same test, now with this note: 5 ng TrkA, 500 μM ATP, read-out: TrkA inhibitory activity in-vitro IC50.
As for `O=C(NS(=O)(=O)C1CCNCC1)c1cnn2ccc(N3CCC[C@@H]3c3cc(F)ccc3F)cc12` [Example 17, (R)-5-(2-(2,5-difluorophenyl)pyrrolidin-1-yl)-N-(piperidin-4-ylsulfonyl)pyrazolo[1,5-a] pyridine-3-carboxamide], the IC50 lay in the range of 1 to 10 µM.

In the case of `CC(C)(C)S(=O)(=O)NC(=O)c1cnn2ccc(N3CCCC3c3cc(F)cc4c3OCCO4)cc12` (single isomer, unassigned) [Example 51, N-(tert-butylsulfonyl)-5-(2-(7-fluoro-2,3-dihydrobenzo [b][1,4]dioxin-5-yl)pyrrolidin-1-yl)pyrazolo[1,5-a]pyridine-3-carboxamide], the IC50 is 1 to 10 µM.

The record behind these values is patent US10047087B2, “Substituted pyrazolo[1,5-A] pyridine as tropomyosin receptor kinase (TrK) inhibitors” (Dr. Reddy's Laboratories Ltd., priority 2011, dated 2018).
